In patent US9873657B2, “Derivatives of benzyl benzoate” (ROBERTET S.A., priority 2014, dated 2018):

Tested on: Corynaebacterium xerosis
Experiment: In vitro deodorant activity and durability test (CFU counting in culture vials)
Type: cell-based
Conditions: for Number of CFU/ml at t + 24 h / Number of CFU/ml at t + 48 h: 37° C.
Description: The test is carried out in vitro.
The compound 1 and the benzyl-4-benzoyloxybenzoate (reference compound described in the international patent application WO 91/07165) are both 10% diluted in benzylbenzoate, and incorporated in a specific culture medium at the moment of distribution in 50 ml vials.
The composition of the vials is characterized as follows: • Vial No. 1 • Brain Heart Infusion (medium)+0.5% Tween 40 • Compound 1 or benzyl-4-benzoyloxybenzoate—0.25% • Enzyme (Lipozyme® CALB, Novozymes)—2% • Bacteria (Corynaebacterium xerosis)—about 10^6 CFU/ml • Vial No. 2 • Brain Heart Infusion (medium)+0.5% Tween 40 • Compound 1 or benzyl-4-benzoyloxybenzoate—0.25% • Bacteria (Corynaebacterium xerosis)—about 10^6 CFU/ml • Vial No. 3 • Brain Heart Infusion (medium)+0.5% Tween 40 • Compound 1 or benzyl-4-benzoyloxybenzoate—0.25% • Enzyme (Lipozyme® CALB, Novozymes)—2%
Afterwards, the vials are incubated under stirring at 37° C. for 48 hours.
After 24 hours, a collection is performed, and 100 μl of a dilution to 1/1000th are spread out on gelose. Counting of the number of CFU (Colony Forming Units) is performed.
It is the comparison of the ratios between the amount of CFU/ml at a time t for the product+enzyme and the product alone which allows assessing the inhibiting activity of the product.

[1] = Vial 1: product 0.25% + enzyme (Lipozyme CALB) 2% + bacteria, Brain Heart Infusion + 0.5% Tween 40
[2] = Vial 2: product 0.25% + bacteria, no enzyme, Brain Heart Infusion + 0.5% Tween 40
[3] = Vial 3: product 0.25% + enzyme 2%, no bacteria added

| SMILES | Number of CFU/ml at t + 24 h [1] | Number of CFU/ml at t + 48 h [1] | Number of CFU/ml at t + 24 h [2] | Number of CFU/ml at t + 48 h [2] | Number of CFU/ml at t + 24 h [3] [CFU/ml] | Number of CFU/ml at t + 48 h [3] [CFU/ml] | deodorant activity compared with benzyl-4-benzoyloxybenzoate (after 24 hours) | deodorant activity relative to the benzyl-4-benzoyloxybenzoate (after 48 hours) |
| --- | --- | --- | --- | --- | --- | --- | --- | --- |
| O=C(OCc1ccccc1)c1ccc(OC(=O)c2ccccc2)cc1 [benzyl-4-benzoyloxybenzoate, reference compound] | 2.7 × 10^6 CFU/ml | 10^8 CFU/ml | 10^8 CFU/ml | 10^9 CFU/ml | 0 | 0 | – | – |
| O=C(OCc1ccccc1)c1ccc(OC(=O)c2ccc(Oc3ccccc3)cc2)cc1 [Compound 1, Benzyl[4-(4-Phenoxy)Benzoyloxy]Benzoate] | 10^7 CFU/ml | 36000 ^ CFU/ml | 10^8 CFU/ml | 3.2 × 10^6 CFU/ml | 0 | 0 | comparable | significantly higher |
